Numbers after ± are expanded uncertainties.
Tests used:
[1] = Crystal
[2] = Molar enthalpy of transition or fusion; settings: Crystal; DSC

mass density ([1]; 293 K, 101.33 kPa, X-ray diffraction): 1120 ± 5.8 kg/m3
Triple point temperature ([1]; DSC): 351.28 ± 0.87 K
Molar enthalpy of transition or fusion [2]: 15.7 ± 0.86 kJ/mol
SMILES: CCNC(=S)NCC [N,N'-diethylthiourea]
